In brackets after ≈: the same amount, converted by molar mass.
System: K562
Assay: Cytotoxicity against human K562 cells
Type: functional
Details: read-out: LC50 (the source's name)

## C=CCCCCC(C)CCCCCC#CCCCC(=O)O (configuration not stated)
  CC50: 43.5 µg/mL (≈ 149 µM)

## C=CCCCCC(C)CCCCCC#CCCC(OC)C(=O)OC(=O)C(CCC#CCCCCCC(C)CCCCC=C)OC (configuration not stated)
  CC50: 62.5 µg/mL (≈ 99.7 µM)

— ChEMBL document CHEMBL1159373, “New acetylenic acids from a sponge of the genus Stelletta” (2003)
